{
  "source": "ChEMBL document CHEMBL3217689",
  "about": "“Synthesis and antiplasmodial evaluation of aziridine(iso)quinoline hybrids and their ring-opening products” (Medchemcomm, 2013)",
  "key": {"CHO": {"tested_on": "CHO", "assay": "Cytotoxicity against CHO cells by MTT assay", "type": "cell-based", "details": "Cricetulus griseus"}, "[1]": {"assay": "Selectivity index, ratio of IC50 for CHO cells to IC50 for chloroquine-sensitive Plasmodium falciparum NF54", "type": "toxicity, cell-based", "details": "hamster; read-out: Ratio IC50"}, "[2]": {"assay": "Resistance index, ratio of IC50 for chloroquine-resistant Plasmodium falciparum Dd2 to IC50 for chloroquine-sensitive Plasmodium falciparum NF54"}, "Plasmodium falciparum [3]": {"tested_on": "Plasmodium falciparum", "assay": "Antiplasmodial activity against chloroquine-resistant Plasmodium falciparum Dd2 by LDH assay", "type": "functional, organism-based"}, "Plasmodium falciparum [4]": {"tested_on": "Plasmodium falciparum", "assay": "Antiplasmodial activity against chloroquine-sensitive Plasmodium falciparum NF54 by LDH assay", "type": "functional, organism-based"}},
  "data": [
    {"smiles": "OCC(COc1cccc2cnccc12)NCc1ccccc1", "note": "(configuration not stated)", "values": [
      {"measurement": "IC50", "setting": "CHO", "value": 148, "unit": "µM"},
      {"measurement": "selectivity ratio", "setting": "[1]", "value": 21.8},
      {"measurement": "Ratio IC50", "setting": "[2]", "value": 2.58},
      {"measurement": "IC50", "setting": "Plasmodium falciparum [3]", "value": 17.6, "unit": "µM"},
      {"measurement": "IC50", "setting": "Plasmodium falciparum [4]", "value": 6.81, "unit": "µM"}
    ]},
    {"smiles": "Cn1nc(C(F)(F)F)cc1OCC1CN1Cc1cnc2ccccc2c1", "note": "(configuration not stated)", "values": [
      {"measurement": "IC50", "setting": "Plasmodium falciparum [4]", "value": "> 27.6", "unit": "µM"}
    ]},
    {"smiles": "Cn1nc(C(F)(F)F)cc1OCC1CN1Cc1cc2ccccc2nc1Cl", "note": "(configuration not stated)", "values": [
      {"measurement": "IC50", "setting": "Plasmodium falciparum [4]", "value": "> 25.2", "unit": "µM"}
    ]},
    {"smiles": "Cn1nc(C(F)(F)F)cc1OCC1CN1Cc1ccnc2ccccc12", "note": "(configuration not stated)", "values": [
      {"measurement": "IC50", "setting": "Plasmodium falciparum [4]", "value": 9.66, "unit": "µM"}
    ]},
    {"smiles": "Cn1nc(C(F)(F)F)cc1OCC(CO)NCc1cnc2ccccc2c1", "note": "(configuration not stated)", "values": [
      {"measurement": "IC50", "setting": "CHO", "value": 181, "unit": "µM"},
      {"measurement": "selectivity ratio", "setting": "[1]", "value": 38.3},
      {"measurement": "IC50", "setting": "Plasmodium falciparum [3]", "value": 15.2, "unit": "µM"},
      {"measurement": "IC50", "setting": "Plasmodium falciparum [4]", "value": 4.73, "unit": "µM"}
    ]},
    {"smiles": "Cn1nc(C(F)(F)F)cc1OCC(CO)NCc1cc2ccccc2nc1Cl", "note": "(configuration not stated)", "values": [
      {"measurement": "IC50", "setting": "Plasmodium falciparum [4]", "value": "> 24.1", "unit": "µM"}
    ]},
    {"smiles": "COCC(COc1cc(C(F)(F)F)nn1C)NCc1cc2ccccc2nc1Cl", "note": "(configuration not stated)", "values": [
      {"measurement": "IC50", "setting": "Plasmodium falciparum [4]", "value": 17, "unit": "µM"}
    ]},
    {"smiles": "COCC(COc1cc(C(F)(F)F)nn1C)NCc1cc2ccccc2nc1OC", "note": "(configuration not stated)", "values": [
      {"measurement": "IC50", "setting": "Plasmodium falciparum [4]", "value": "> 23.6", "unit": "µM"}
    ]},
    {"smiles": "O=c1nc(C(F)(F)F)ccn1CC1CN1Cc1cnc2ccccc2c1", "note": "(configuration not stated)", "values": [
      {"measurement": "IC50", "setting": "Plasmodium falciparum [4]", "value": "> 27.8", "unit": "µM"}
    ]},
    {"smiles": "O=c1nc(C(F)(F)F)ccn1CC1CN1Cc1cc2ccccc2nc1Cl", "note": "(configuration not stated)", "values": [
      {"measurement": "IC50", "setting": "Plasmodium falciparum [4]", "value": 9.12, "unit": "µM"}
    ]},
    {"smiles": "O=c1c(Cl)c(Cl)cnn1CC1CN1Cc1cnc2ccccc2c1", "note": "(configuration not stated)", "values": [
      {"measurement": "IC50", "setting": "Plasmodium falciparum [4]", "value": 12.7, "unit": "µM"}
    ]},
    {"smiles": "O=c1c(Cl)c(Cl)cnn1CC1CN1Cc1cc2ccccc2nc1Cl", "note": "(configuration not stated)", "values": [
      {"measurement": "IC50", "setting": "Plasmodium falciparum [4]", "value": 22.8, "unit": "µM"}
    ]},
    {"smiles": "O=c1c(Cl)c(Cl)cnn1CC1CN1Cc1ccnc2ccccc12", "note": "(configuration not stated)", "values": [
      {"measurement": "IC50", "setting": "Plasmodium falciparum [4]", "value": 26.9, "unit": "µM"}
    ]},
    {"smiles": "O=c1c(Cl)c(Cl)cnn1CC(CO)NCc1cnc2ccccc2c1", "note": "(configuration not stated)", "values": [
      {"measurement": "IC50", "setting": "Plasmodium falciparum [4]", "value": 15.3, "unit": "µM"}
    ]},
    {"smiles": "O=c1c(Cl)c(Cl)cnn1CC(CO)NCc1cc2ccccc2nc1Cl", "note": "(configuration not stated)", "values": [
      {"measurement": "IC50", "setting": "Plasmodium falciparum [4]", "value": 15, "unit": "µM"}
    ]},
    {"smiles": "O=c1c(Cl)c(Cl)cnn1CC(CO)NCc1ccnc2ccccc12", "note": "(configuration not stated)", "values": [
      {"measurement": "IC50", "setting": "Plasmodium falciparum [4]", "value": 24.5, "unit": "µM"}
    ]},
    {"smiles": "COCC(Cn1ncc(Cl)c(Cl)c1=O)NCc1ccnc2ccccc12", "note": "(configuration not stated)", "values": [
      {"measurement": "IC50", "setting": "Plasmodium falciparum [4]", "value": 14.5, "unit": "µM"}
    ]},
    {"smiles": "c1ccc(CN2CC2COc2cccc3cnccc23)cc1", "note": "(configuration not stated)", "values": [
      {"measurement": "IC50", "setting": "Plasmodium falciparum [4]", "value": 9.99, "unit": "µM"}
    ]},
    {"smiles": "Clc1ccc(CN2CC2COc2cccc3cnccc23)cc1", "note": "(configuration not stated)", "values": [
      {"measurement": "IC50", "setting": "Plasmodium falciparum [4]", "value": "> 30.8", "unit": "µM"}
    ]},
    {"smiles": "Fc1ccc(CN2CC2COc2cccc3cnccc23)cc1", "note": "(configuration not stated)", "values": [
      {"measurement": "IC50", "setting": "Plasmodium falciparum [4]", "value": 15.9, "unit": "µM"}
    ]},
    {"smiles": "Clc1ccccc1CN1CC1COc1cccc2cnccc12", "note": "(configuration not stated)", "values": [
      {"measurement": "IC50", "setting": "Plasmodium falciparum [4]", "value": 12.9, "unit": "µM"}
    ]},
    {"smiles": "COc1ccc(CN2CC2COc2cccc3cnccc23)cc1", "note": "(configuration not stated)", "values": [
      {"measurement": "IC50", "setting": "Plasmodium falciparum [4]", "value": 9.99, "unit": "µM"}
    ]},
    {"smiles": "Clc1ccc(CN2CC2COc2cccc3cnccc23)c(Cl)c1", "note": "(configuration not stated)", "values": [
      {"measurement": "IC50", "setting": "Plasmodium falciparum [4]", "value": "> 27.8", "unit": "µM"}
    ]},
    {"smiles": "FC(F)(F)c1ccc(CN2CC2COc2cccc3cnccc23)cc1", "note": "(configuration not stated)", "values": [
      {"measurement": "IC50", "setting": "Plasmodium falciparum [4]", "value": "> 27.9", "unit": "µM"}
    ]},
    {"smiles": "COc1ccccc1CN1CC1COc1cccc2cnccc12", "note": "(configuration not stated)", "values": [
      {"measurement": "IC50", "setting": "CHO", "value": 52.3, "unit": "µM"},
      {"measurement": "selectivity ratio", "setting": "[1]", "value": 9.88},
      {"measurement": "Ratio IC50", "setting": "[2]", "value": 1.6},
      {"measurement": "IC50", "setting": "Plasmodium falciparum [3]", "value": 8.46, "unit": "µM"},
      {"measurement": "IC50", "setting": "Plasmodium falciparum [4]", "value": 5.29, "unit": "µM"}
    ]},
    {"smiles": "OCC(COc1cccc2cnccc12)NCc1ccc(Cl)cc1", "note": "(configuration not stated)", "values": [
      {"measurement": "IC50", "setting": "Plasmodium falciparum [4]", "value": 22.8, "unit": "µM"}
    ]},
    {"smiles": "OCC(COc1cccc2cnccc12)NCc1ccc(Cl)cc1Cl", "note": "(configuration not stated)", "values": [
      {"measurement": "IC50", "setting": "Plasmodium falciparum [4]", "value": "> 26.5", "unit": "µM"}
    ]},
    {"smiles": "OCC(COc1cccc2cnccc12)NCc1ccc(C(F)(F)F)cc1", "note": "(configuration not stated)", "values": [
      {"measurement": "IC50", "setting": "Plasmodium falciparum [4]", "value": 11.7, "unit": "µM"}
    ]},
    {"smiles": "COCC(COc1cccc2cnccc12)NCc1ccccc1", "note": "(configuration not stated)", "values": [
      {"measurement": "IC50", "setting": "Plasmodium falciparum [4]", "value": 13, "unit": "µM"}
    ]},
    {"smiles": "COCC(COc1cccc2cnccc12)NCc1ccc(F)cc1", "note": "(configuration not stated)", "values": [
      {"measurement": "IC50", "setting": "Plasmodium falciparum [4]", "value": 24.4, "unit": "µM"}
    ]},
    {"smiles": "COCC(COc1cccc2cnccc12)NCc1ccccc1Cl", "note": "(configuration not stated)", "values": [
      {"measurement": "IC50", "setting": "Plasmodium falciparum [4]", "value": 16.5, "unit": "µM"}
    ]},
    {"smiles": "COCC(COc1cccc2cnccc12)NCc1ccc(OC)cc1", "note": "(configuration not stated)", "values": [
      {"measurement": "IC50", "setting": "Plasmodium falciparum [4]", "value": "> 28.4", "unit": "µM"}
    ]},
    {"smiles": "COCC(COc1cccc2cnccc12)NCc1ccccc1OC", "note": "(configuration not stated)", "values": [
      {"measurement": "IC50", "setting": "Plasmodium falciparum [4]", "value": "> 28.4", "unit": "µM"}
    ]},
    {"smiles": "c1ccc(CNC(CNc2ccccc2)COc2cccc3cnccc23)cc1", "note": "(configuration not stated)", "values": [
      {"measurement": "IC50", "setting": "CHO", "value": 237, "unit": "µM"},
      {"measurement": "selectivity ratio", "setting": "[1]", "value": 50.5},
      {"measurement": "Ratio IC50", "setting": "[2]", "value": 1.75},
      {"measurement": "IC50", "setting": "Plasmodium falciparum [3]", "value": 8.21, "unit": "µM"},
      {"measurement": "IC50", "setting": "Plasmodium falciparum [4]", "value": 4.69, "unit": "µM"}
    ]},
    {"smiles": "Clc1ccc(CNC(CNc2ccccc2)COc2cccc3cnccc23)cc1", "note": "(configuration not stated)", "values": [
      {"measurement": "IC50", "setting": "Plasmodium falciparum [4]", "value": 10.5, "unit": "µM"}
    ]},
    {"smiles": "[Br-].c1ccc(CN2CC2COc2cccc3c[n+](Cc4ccccc4)ccc23)cc1", "note": "(configuration not stated)", "values": [
      {"measurement": "IC50", "setting": "CHO", "value": 51.8, "unit": "µM"},
      {"measurement": "selectivity ratio", "setting": "[1]", "value": 47.7},
      {"measurement": "Ratio IC50", "setting": "[2]", "value": 0.94},
      {"measurement": "IC50", "setting": "Plasmodium falciparum [3]", "value": 1.02, "unit": "µM"},
      {"measurement": "IC50", "setting": "Plasmodium falciparum [4]", "value": 1.09, "unit": "µM"}
    ]},
    {"smiles": "BrC(COc1cccc2c[n+](Cc3ccccc3)ccc12)CN(Cc1ccccc1)Cc1ccccc1.[Br-]", "note": "(configuration not stated)", "values": [
      {"measurement": "IC50", "setting": "CHO", "value": 45.1, "unit": "µM"},
      {"measurement": "selectivity ratio", "setting": "[1]", "value": 205},
      {"measurement": "Ratio IC50", "setting": "[2]", "value": 5.32},
      {"measurement": "IC50", "setting": "Plasmodium falciparum [3]", "value": 1.17, "unit": "µM"},
      {"measurement": "IC50", "setting": "Plasmodium falciparum [4]", "value": 0.22, "unit": "µM"}
    ]},
    {"smiles": "C[C@H]1[C@H](OC(=O)CCC(=O)O)O[C@@H]2O[C@@]3(C)CC[C@H]4[C@H](C)CC[C@@H]1[C@@]24OO3", "note": "[ARTESUNATE]", "values": [
      {"measurement": "IC50", "setting": "Plasmodium falciparum [4]", "value": 0.02, "unit": "µM"}
    ]},
    {"smiles": "CC[C@H]1CN2CCc3cc(OC)c(OC)cc3[C@@H]2C[C@@H]1C[C@H]1NCCc2cc(OC)c(OC)cc21", "note": "[EMETINE]", "values": [
      {"measurement": "IC50", "setting": "CHO", "value": 0.4, "unit": "µM"}
    ]}
  ]
}
